US20260097060A1, “PHARMACEUTICAL COMPOSITION COMPRISING ENAVOGLIFLOZIN FOR PREVENTING OR TREATING CARDIOVASCULAR AGING DISEASES” (DAEWOONG PHARMACEUTICAL CO., LTD., priority 2022, published 2026)

What was measured:
[1] = test system: porcine coronary artery rings; test: Evaluation of vascular function (bradykinin-induced relaxation of coronary artery rings, organ chamber); conditions: for bradykinin concentration at which vasorelaxation was significantly increased compared to nanoplastics alone: nanoplastics + 1 μM test drug
Procedure: Vascular endothelial cells play an important role in maintaining vascular homeostasis, but senescence is known to cause vascular dysfunction. Therefore, vascular reactivity of vascular endothelial cells was evaluated to see whether enavogliflozin prevents vascular dysfunction caused by the exposure to nanoplastics. In addition, the evaluation was performed together with the competing material, empagliflozin, and thus their effects were compared.
Specifically, the left anterior descending coronary artery of the porcine heart was resected into rings with a size of 2 to 3 mm. An experiment was conducted with a control, a group treated with 10 µg/mL of nanoplastics, groups treated with […] of nanoplastics+different concentrations of enavogliflozin (0.01, 0.1, and 1 μM), and a group treated with 10 µg/mL of nanoplastics+[…] empagliflozin. The coronary artery rings were placed in Crabb's solution at 37° C. in an organ chamber (95% 02, 5% CO2) to measure changes in isometric tension. The viability of each coronary ring was confirmed by constant […] loading at 5 g for 90 minutes and repeated contractions with up to 80 mM KCl. After washing for 30 minutes, the coronary artery rings were constricted to approximately 80% (maximum contraction) using the thromboxane mimetic U46619 and treated with bradykinin. The relaxation rate of blood vessels in relation to the concentration of bradykinin was then calculated. The results are shown in the graph of FIG. 10.
For statistical data analysis, Prism 5.03 software (GraphPad Software Inc., San Diego, CA, USA) was used. The test results are expressed as the mean±standard error of the mean (SEM). The statistical method was to conduct a two-way ANOVA to verify the difference between groups, and a post hoc test for each type was performed using the verification method with the Bonferroni function. The significance level was set to be p<0.05.
Bradykinin is a biomaterial, and when a bradykinin receptor is activated, endothelial nitric oxide synthase (eNOS) is activated, releasing nitric oxide (NO) and relaxing blood vessels.

[2] = test system: porcine coronary artery rings and coronary artery-derived endothelial cells; test: Evaluation of β-galactosidase (SA-β-Gal) activity (X-gal staining); type: cell-based; conditions: 10 µg/mL nanoplastics + enavogliflozin 0.01, 0.1 and 1 μM, 24 hours, vs nanoplastics
Procedure: Senescence-related β-galactosidase (SA-β-Gal) activity is the characteristic of senescent cells, and used as a histochemical marker for senescence.
Specifically, the porcine coronary artery was cut into a size of 2 to 3 mm to form coronary artery rings. Next, the coronary artery rings were divided into a control, a group treated with 10 µg/mL of nanoplastics, and groups treated with 10 µg/mL of the nanoparticles+different concentrations of enavogliflozin (0.01, 0.1, and 1 μM) to perform the experiment. After 24-hour culture, the cells were fixed with 4% formaldehyde, and stained with an X-gal dye to allow a reaction for one day.
Subsequently, the coronary artery rings were immersed in an optimal cutting temperature (OCT) solution (Leica Biosystems) and cut to 10 μm sections using a cryotome at −25° C. and observed under a microscope. The results are shown in the photograph in FIG. 5. In addition, the evaluation of β-galactosidase activity in endothelial cells derived from the porcine coronary artery is as follows. […]
(§1) For statistical data analysis, Prism 5.03 software (GraphPad Software Inc., San Diego, CA, USA) was used. The test results are expressed as the mean±standard error of the mean (SEM). […]

eNOS = test: Measurement of expression of eNOS (western blot); type: cell-based, porcine; conditions: nanoplastics + enavogliflozin 0.01, 0.1 and 1 μM, 24 hours
Procedure: Reduced eNOS expression is a common feature in endothelial senescence, and is known to cause endothelial dysfunction. Here, the expression of eNOS was measured, thereby confirming that enavogliflozin improves the damage to the endothelial function caused by the exposure to nanoplastics.
Specifically, the cells were seeded at 1×10^5 cells/well in a 6-well plate. The cells were cultured in DMEM containing 10% FBS, penicillin (100 U/mL), streptomycin (100 U/mL), and fungizone ([…]) in a CO2 incubator at 37° C. […]
To lyse the porcine coronary artery endothelial cells, 1×RIPA buffer was added to each well and the cells were lysed for 10 minutes. […] Protein quantification of the obtained cell lysate was measured using Bio-Rad DC protein reagent. […]
After eNOS (1:1,000) and 3-actin (1:1,000) as primary antibodies were reacted at 4° C. for 24 hours, the resulting product was washed 3 to 5 times with 1×TBS-T buffer for 10 minutes. […] Protein bands were treated with an ECL solution and detected using Amersham imager 680.
as §1

[3] = test system: porcine coronary artery endothelial cells; test: Evaluation of cell proliferation effect (MTS); type: cell-based; conditions: nanoplastics + enavogliflozin 0.01, 0.1 and 1 μM, 24 hours, vs nanoplastics
Procedure: Cell cycle arrest is one of the main features of cellular senescence. It was confirmed whether enavogliflozin could improve decreased proliferation of endothelial cells, that is, cellular senescence, caused by the exposure to nanoplastics.
Specifically, after extracting the porcine coronary artery, the porcine coronary artery was treated with collagenase for 20 minutes and centrifuged to obtain coronary artery endothelial cells. The cells were seeded at 1×10^4 cells/well in a 96-well plate. The cells were incubated in DMEM containing 10% FBS, penicillin (100 U/mL), streptomycin (100 U/mL), and fungizone ([…]) in a 5% CO2 incubator at 37° C. The cells were divided into a control, a group treated with 10 µg/mL of nanoplastics, and groups treated with the nanoparticles+different concentrations of enavogliflozin (0.01, 0.1, and 1 μM) to perform the experiment, and the cell proliferation effect was measured using a CellTiter 96 Aqueous One Solution Cell Proliferation Assay (Promega Corporation, USA) kit. Samples were treated and incubated for 24 hours, and treated with an MTS tetrazolium solution (20 μL/well) to allow a reaction for 3 hours, and then absorbance was measured at 490 nm using an Enspire Multilabel Reader (Perkin Elmer Ltd.).
For statistical data analysis, Prism 5.03 software (GraphPad Software Inc., San Diego, CA, USA) was used. […]

[4] = Dissolution test (Korean Pharmacopoeia method 2, paddle method); type: physicochemical
Procedure: Since the dissolution rate of the active ingredient in the pharmaceutical composition affects the maximum blood concentration (Cmax) and the blood concentration-area under the blood concentration-time curve (AUC) when administering the drug, to achieve appropriate Cmax and AUC, it is important to adjust the dissolution rate of the pharmaceutical composition. Since enavogliflozin has a Tmax of 1 to 2 hours, the drug absorption rate in the stomach is considered important. The above dissolution rate was measured under the condition of the dissolved solution 1.2 in accordance with the dissolution test method 2 of the Korean Pharmacopoeia (paddle method). For specific conditions, refer to the following experimental examples.

Pharmacokinetics (Tmax) = type: in vivo; conditions: blood, oral
[5] = test system: reactive oxygen species (ROS); test: Evaluation of oxidative stress (ROS, DCF-DA and DHE fluorescence); type: cell-based, porcine; conditions: 10 µg/mL nanoplastics + enavogliflozin 0.01, 0.1 and 1 μM
Procedure: Oxidative stress was measured using dihydroethidium (DHE) and 2′,7′-dichlorodihydrofluorescein diacetate (DCF-DA).
Specifically, porcine coronary artery endothelial cells were seeded at 1×10^4 cells/well in a black 96-well plate. The cells were divided into a control, a group treated with 10 µg/mL of nanoplastics, and groups treated with 10 µg/mL of the nanoparticles+different concentrations of enavogliflozin (0.01, 0.1, and 1 μM) to perform the experiment. The cells were incubated in DMEM containing 10% FBS, penicillin (100 U/mL), streptomycin (100 U/mL), and fungizone ([…]) in a CO2 incubator at 37° C. After 24-hour incubation, the amount of reactive oxygen species (ROS) produced was measured by fluorescent absorbance (excitation/emission 485/535 nm).
To measure the ROS produced also in the coronary artery rings, the coronary artery rings were treated with samples for each group, and immersed in a frame containing an OCT solution (Leica Biosystems) and frozen in liquid nitrogen. The frozen result was cut into […] sections using a cryotome, and the sections were stained with DHE (10 μM) and incubated at 37° C. for 45 minutes, washed with PBS, and then observed using a fluorescence microscope.
as §1

[6] = test system: Nox2 and p22phox, membrane catalytic subunits of NADPH oxidase; test: Expression of oxidative stress-associated markers (western blot); type: cell-based, porcine; conditions: nanoplastics + enavogliflozin 0.01, 0.1 and 1 μM, 24 hours
Procedure: In the porcine coronary artery endothelial cells, it is known that NADPH oxidase produces a peroxide in endothelial cells to cause cellular senescence and endothelial dysfunction. Oxidative stress in cells was assessed by measuring the expression of Nox2 and p22phox, which are membrane catalytic subunits of the NAPDH oxidase.
(§2) Specifically, the cells were seeded at 1×10^5 cells/well in a 6-well plate. The cells were incubated in DMEM containing 10% FBS, penicillin (100 U/mL), streptomycin (100 U/mL), and fungizone ([…]) in a CO2 incubator at 37° C. The cells were divided into a control, a group treated with 10 µg/mL of nanoplastics, and groups treated with nanoplastics+different concentrations of enavogliflozin (0.01, 0.1, and 1 μM), treated with a sample, and then incubated for 24 hours.
To lyse the porcine coronary artery endothelial cells, 1×RIPA buffer was added to each well and the cells were lysed for 10 minutes. The cells were scraped with a scraper and centrifuged at 14,000 rpm and 4° C. for 15 minutes. Protein quantification of the obtained cell lysate was measured using Bio-Rad DC protein reagent. Analysis was performed by equally loading […] of protein. […]
as §1

[7] = test system: cellular senescence markers p53 and p21; test: Expression of endothelial cell senescence markers (western blot); type: cell-based, porcine; conditions: nanoplastics + enavogliflozin 0.01, 0.1 and 1 μM, 24 hours
Procedure: The expression of cellular senescence markers p53 and p21 was confirmed in porcine coronary artery endothelial cells.
as §2, with “were cultured” for “were incubated”, “10 μg/mL” for “10 µg/mL”, “with the nanoparticles+different” for “with nanoplastics+different”, “μM), and then the cells were” for “μM),”, “with samples” for “with a sample,”, “and” for “and then”
To lyse the porcine coronary artery endothelial cells, 1×RIPA buffer was added to each well and the cells were lysed for 10 minutes. The cells were scraped with a scraper and centrifuged at 14,000 rpm and 4° C. for 15 minutes. Protein quantification of the obtained cell lysate was measured using Bio-Rad DC protein reagent. Analysis was performed by equally loading 15 g of protein.
After reacting with p53 (1:1,000), p21 (1:1,000), and β-actin (1:1,000) as primary antibodies at 4° C. for 24 hours, the cells were washed 3 to 5 times with 1×TBS-T buffer for 10 minutes. […]
as §1

SMILES	bradykinin concentration at which vasorelaxation was significantly increased compared to nanoplastics alone [1] [nM]	β-galactosidase (SA-β-Gal) activity [2]	eNOS expression (eNOS)	bradykinin-induced vasorelaxation ([1]; 10 µg/mL nanoplastics + enavogliflozin 0.01, 0.1 and 1 μM, vs nanoplastics alone)	cell proliferation [3]	30-minute dissolution rate ([4]; average particle size of enavogliflozin)	5-minute dissolution rate ([4]; average particle size of enavogliflozin greater than 15 m)	Tmax (Pharmacokinetics (Tmax)) [h]	fluorescence intensity of DCF-DA (ROS production) [5]	fluorescence intensity of DHE (ROS production) [5]	expression of Nox2 [6]	expression of p22phox [6]	expression of p21 protein [7]	expression of p53 protein [7]
OC[C@H]1O[C@@H](c2ccc(Cl)c(Cc3ccc(O[C@H]4CCOC4)cc3)c2)[C@H](O)[C@@H](O)[C@@H]1O [empagliflozin, reference compound]	≥ 30													
OC[C@H]1O[C@@H](c2cc(Cc3ccc(C4CC4)cc3)c(Cl)c3c2CCO3)[C@H](O)[C@@H](O)[C@@H]1O [enavogliflozin]	≥ 0.3	significantly reduced	significantly increase	significantly increased	improved	less than 80%	less than 40 % of the total content of enavogliflozin	1 to 2	significantly decreased	significantly decreased	significantly decreased in a concentration-dependent manner	significantly decreased in a concentration-dependent manner	significantly decreased in a concentration-dependent manner	significantly decreased in a concentration-dependent manner
